Tests used:
[1] = for mass density / kinematic viscosity: 101.33 kPa, Liquid; for mass density: Vibrating tube method; for surface tension liquid-gas / kinematic viscosity: Surface laser light scattering (SLLS)
[2] = refractive index (Na D-line) (dimensionless); settings: 101.33 kPa, Liquid, Standard Abbe refractometry

CCCCCC(=O)OC [methyl hexanoate]
Settings	kinematic viscosity [m2/s]	mass density [kg/m3]	refractive index	surface tension liquid-gas [mN/m]
[1], 293.15 K	–	884.44	–	–
[1], 298.14 K	1.02e-06	–	–	24.58
[1], 303.15 K	–	874.79	–	–
[1], 313.15 K	–	865.12	–	–
[1], 323.15 K	–	855.4	–	–
[1], 323.17 K	7.49e-07	–	–	22.44
[1], 333.15 K	–	845.68	–	–
[1], 343.15 K	–	835.87	–	–
[1], 348.18 K	5.74e-07	–	–	20.35
[1], 353.15 K	–	825.97	–	–
[1], 363.15 K	–	815.95	–	–
[1], 373.15 K	–	805.49	–	–
[1], 373.21 K	4.53e-07	–	–	18.03
[1], 383.15 K	–	795.6	–	–
[1], 393.15 K	–	785.23	–	–
[1], 398.2 K	3.74e-07	–	–	15.63
[1], 403.15 K	–	774.67	–	–
[1], 413.15 K	–	763.86	–	–
[1], 423.17 K	3.25e-07	–	–	13.36
[1], 448.17 K	2.82e-07	–	–	11.18
[2], 278.15 K	–	–	1.41212	–
[2], 283.15 K	–	–	1.40984	–
[2], 288.15 K	–	–	1.40757	–
[2], 293.15 K	–	–	1.40529	–
[2], 298.15 K	–	–	1.403	–
[2], 303.15 K	–	–	1.4007	–
[2], 308.15 K	–	–	1.39841	–
[2], 313.15 K	–	–	1.3961	–
[2], 318.15 K	–	–	1.39373	–
[2], 323.15 K	–	–	1.39136	–
[2], 328.15 K	–	–	1.38902	–
[2], 333.15 K	–	–	1.38667	–
[2], 338.15 K	–	–	1.38432	–
[2], 343.15 K	–	–	1.38169	–
[2], 348.15 K	–	–	1.37961	–
[2], 353.15 K	–	–	1.37725	–
[2], 358.15 K	–	–	1.3749	–

CCCCCCCC(=O)OC [methyl octanoate]
Settings	kinematic viscosity [m2/s]	mass density [kg/m3]	refractive index	surface tension liquid-gas [mN/m]
[1], 293.15 K	–	876.58	–	–
[1], 298.19 K	1.51e-06	–	–	24.65
[1], 303.15 K	–	866.75	–	–
[1], 313.15 K	–	858.95	–	–
[1], 323.15 K	–	850.13	–	–
[1], 323.21 K	1.09e-06	–	–	23.02
[1], 333.15 K	–	841.3	–	–
[1], 343.15 K	–	832.44	–	–
[1], 348.23 K	8.31e-07	–	–	21.61
[1], 353.15 K	–	823.54	–	–
[1], 363.15 K	–	814.59	–	–
[1], 373.15 K	–	805.56	–	–
[1], 373.28 K	6.5e-07	–	–	19.62
[1], 383.15 K	–	796.52	–	–
[1], 393.15 K	–	787.36	–	–
[1], 398.31 K	5.19e-07	–	–	17.62
[1], 403.15 K	–	778.1	–	–
[1], 413.15 K	–	768.72	–	–
[1], 423.15 K	–	759.27	–	–
[1], 423.31 K	4.3e-07	–	–	15.47
[1], 433.15 K	–	749.61	–	–
[1], 443.15 K	–	739.56	–	–
[1], 448.33 K	3.59e-07	–	–	13.44
[1], 453.15 K	–	729.82	–	–
[2], 278.15 K	–	–	1.42385	–
[2], 283.15 K	–	–	1.42168	–
[2], 288.15 K	–	–	1.41951	–
[2], 293.15 K	–	–	1.41734	–
[2], 298.15 K	–	–	1.41516	–
[2], 303.15 K	–	–	1.41298	–
[2], 308.15 K	–	–	1.41079	–
[2], 313.15 K	–	–	1.40854	–
[2], 318.15 K	–	–	1.40629	–
[2], 323.15 K	–	–	1.40405	–
[2], 328.15 K	–	–	1.40183	–
[2], 333.15 K	–	–	1.39965	–
[2], 338.15 K	–	–	1.3975	–
[2], 343.15 K	–	–	1.39535	–
[2], 348.15 K	–	–	1.3932	–
[2], 353.15 K	–	–	1.39104	–
[2], 358.15 K	–	–	1.38886	–

CCCCCCCCCCCCCC(=O)OC [methyl tetradecanoate]
Settings	kinematic viscosity [m2/s]	mass density [kg/m3]	refractive index	surface tension liquid-gas [mN/m]
[1], 293.15 K	–	867.06	–	–
[1], 303.15 K	–	859.28	–	–
[1], 313.15 K	–	851.61	–	–
[1], 323.15 K	–	843.97	–	–
[1], 323.17 K	2.41e-06	–	–	23.37
[1], 333.15 K	–	836.37	–	–
[1], 343.15 K	–	828.8	–	–
[1], 348.16 K	1.76e-06	–	–	21.83
[1], 353.15 K	–	821.26	–	–
[1], 363.15 K	–	813.71	–	–
[1], 373.15 K	–	806.17	–	–
[1], 373.18 K	1.38e-06	–	–	20.78
[1], 383.15 K	–	798.64	–	–
[1], 393.15 K	–	791.09	–	–
[1], 398.2 K	1.08e-06	–	–	19.71
[1], 403.15 K	–	783.52	–	–
[1], 413.15 K	–	775.91	–	–
[1], 423.15 K	–	768.24	–	–
[1], 423.17 K	8.63e-07	–	–	18.31
[1], 433.15 K	–	760.61	–	–
[1], 443.15 K	–	752.95	–	–
[1], 448.17 K	7e-07	–	–	16.82
[1], 453.15 K	–	745.22	–	–
[2], 293.15 K	–	–	1.43704	–
[2], 298.15 K	–	–	1.43499	–
[2], 303.15 K	–	–	1.43296	–
[2], 308.15 K	–	–	1.43093	–
[2], 313.15 K	–	–	1.4289	–
[2], 318.15 K	–	–	1.42681	–
[2], 323.15 K	–	–	1.42472	–
[2], 328.15 K	–	–	1.42254	–
[2], 333.15 K	–	–	1.4202	–
[2], 338.15 K	–	–	1.41783	–
[2], 343.15 K	–	–	1.4163	–
[2], 348.15 K	–	–	1.41474	–
[2], 353.15 K	–	–	1.41282	–
[2], 358.15 K	–	–	1.41083	–

From the NIST ThermoML archive (doi:10.1016/j.jct.2019.02.025)
